Experimental data reported in patent US20170240570A1, “NOVEL SMALL MOLECULE ANTICANCER AGENTS” (UNIVERSITY OF FLORIDA RESEARCH FOUNDATION, priority 2014, published 2017).
Entries after “also recorded” stand apart in the source; their conditions may differ.

Assays:
Assay type in all cases: cell-based, human
[1] = test system: HER2, EGFR, Akt, Erk, S6, PARP in HCC1954 cells; test: Immunoblot analysis of treated cells
From the text: Immunoblot analysis of HCC1954 cells treated as in 8B.

HCC1954 cells = test: Viability in MTT assay; settings: 24 h
Method: FIG. 8. depicts 8A) Viability of HCC1954 cells treated as indicated for 24 h measured in MTT assays.

[2] = test system: EGFR, HER2, HER3, Akt, Erk, PARP in MDA-MB-468 cells; test: Immunoblot analysis of treated cells
Method: FIG. 3. depicts 3A) the analysis of MDA-MB-468 cells treated as indicated for 24 h by immunoblot for levels of EGFR and EGFR phosphorylation. 3B) the analysis of MDA-MB-468 cells treated as indicated for 24 h by immunoblot for PARP cleavage. 3C) MDA-MB-468 cells were either left untreated, or treated with 20 μM NSC624205 for 24 hours. NSC624205-treated cells were then washed and incubated for the indicated periods in the absence of drug. EGFR electrophoretic mobility was analyzed by immunoblot. 3D) MDA-MB-468 cells were pretreated with 25 μM NSC624205 or vehicle for 15 hours and then either left untreated or stimulated for 15 minutes with 20 ng/ml EGF, after which cell extracts were analyzed by immunoblot. 3E) MDA-MB-468 cells were treated as indicated for 24 hours and analyzed by immunoblot.
FIG. 5. depicts 5A) Photomicrographs of MDA-MB-468 cells treated for 24 h with 20 μM of the indicated compounds. 5B) Immunoblot analysis of MDA-MB-468 cells treated as in 5A. […] 5D) Viability of BT474 or MDA-MB-468 cells treated for 24 h with the indicated drug at the specified concentrations was measured in MTT assays. Assays were carried out in triplicate and results were presented as the average±S.D. 5E) Proliferation of tert-immortalized human mammary epithelial cells (HMEC-tert) and MDA-MB-468, BT474, and SKBR3 breast cancer cells after incubation with the indicated concentrations of RBF3 for 24 h was measured in thymidine incorporation assays as described in FIG. 2D. 5F)-5H) The indicated cell lines were treated with the indicated compounds at 20 μM unless otherwise indicated for 24 h and analyzed by immunoblot.
To examine the reversibility of NSC624205 actions, MDA-MB-468 cells were treated for 24 hr with NSC624205 and then the compound was washed out and the cells were allowed to recover for various periods of time. […] To examine whether NSC624205 can suppress cellular responses to EGF, cells were stimulated with EGF either with or without NSC624205 treatment.

[3] = test system: T47D cells with enforced EGFR expression (T47D.EGFR); test: Cell death, photographs of treated cells; settings: 20 μM, 24 hours
Method: (§1) FIG. 4. depicts 4A) the treatment of vector control or EGFR overexpressing T47D cells with 20 μM NSC624205 or vehicle for 24 hours and then photographed. […] 4B) Cells treated as in 4A) were subjected to immunoblot analysis.

[4] = test system: T47D cells (vector control); test: Cell death, photographs of treated cells
Method: as §1

[5] = test system: MDA-MB-468 breast cancer cells; test: Cell viability / cell killing, photomicrographs of treated cells
Method: (§2) FIG. 2. depicts 2A) Photomicrographs of MDA-MB-468 or BxPC3 cells treated for 24 hours with 25 μM NSC624205 or the vehicle control. 2B) MDA-MB-468 cells were treated for 24 hours with the indicated concentrations of NSC624203, NSC624204, and NSC624205 and cell viability (mass) was measured by crystal violet staining. 2C) Photomicrographs of MDA-MB-468, SKBR3, or MDA-MB-231 cells treated for 24 h with 10 μM NSC624205 or the vehicle control. 2D) Cell proliferation was measured by thymidine incorporation through the treatment of MDAMB-468 and SKBR3 cells for 24 hours with NSC624203, an EGFR/HER2 inhibitor, or a combination of the two compounds. Results are presented as the average of triplicate determinations±S.D. 2E) The indicated cancer cell lines were treated for 24 h with 20 μM NSC624205 or vehicle and cell extracts were analyzed by immunoblot. Actin serves as a loading control.
FIG. 5. depicts 5A) Photomicrographs of MDA-MB-468 cells treated for 24 h with 20 μM of the indicated compounds. 5B) Immunoblot analysis of MDA-MB-468 cells treated as in 5A. 5C) Chemical structures of Disulfide bond Disrupting Agents (DDAs) showing active compounds on the left side with the pharmacophore highlighted in red, along with the generic pharmacophore. […] The exception to this rule is NSC627175/DTDO, which represents a different pharmacophore. 5D) Viability of BT474 or MDA-MB-468 cells treated for 24 h with the indicated drug at the specified concentrations was measured in MTT assays. Assays were carried out in triplicate and results were presented as the average±S.D. 5E) Proliferation of tert-immortalized human mammary epithelial cells (HMEC-tert) and MDA-MB-468, BT474, and SKBR3 breast cancer cells after incubation with the indicated concentrations of RBF3 for 24 h was measured in thymidine incorporation assays as described in FIG. 2D. 5F)-5H) The indicated cell lines were treated with the indicated compounds at 20 μM unless otherwise indicated for 24 h and analyzed by immunoblot.
The sulfur atom in sulfinic acids can act as a nucleophile capable of breaking disulfide bonds. […]

[6] = test system: EGFR, Akt in EGFR overexpressing T47D cells; test: Immunoblot analysis of treated cells; settings: 20 μM, 24 hours
Method: as §1

[7] = test system: MDA-MB-231 breast cancer cell line; test: Cell killing, photomicrographs of treated cells; settings: 10 μM, 24 hr
Method: as §2
(§3) The sulfur atom in sulfinic acids can act as a nucleophile capable of breaking disulfide bonds. Therefore we obtained several sulfinate-containing compounds from the National Cancer Institute's Developmental Therapeutics Program (NCI/DTP) and, as an initial screen, examined their ability to decrease the viability of various human cancer cell lines. […] NSC624205 and two related compounds, NSC624203 and NSC624204, decreased cell viability by 50% in the range of 3.7-33 μM (FIG. 2B). […]

SKBR3 cells [8] = test: Cell killing, photomicrographs of treated cells; settings: 10 μM, 24 hr
Method: as §2, §3

[9] = test system: EGFR, HER2, HER3, Akt, Erk in SKBR3 cells; test: Immunoblot analysis of treated cells; settings: 20 μM, 24 h
Method: as §2
FIG. 5. depicts 5A) Photomicrographs of MDA-MB-468 cells treated for 24 h with 20 μM of the indicated compounds. 5B) Immunoblot analysis of MDA-MB-468 cells treated as in 5A. […] 5D) Viability of BT474 or MDA-MB-468 cells treated for 24 h with the indicated drug at the specified concentrations was measured in MTT assays. […] 5F)-5H) The indicated cell lines were treated with the indicated compounds at 20 μM unless otherwise indicated for 24 h and analyzed by immunoblot. […]

Erk in T47D cells = test: Immunoblot analysis of treated cells; settings: 20 μM, 24 h
Method: as §2, §3

[10] = test system: BxPC3 pancreatic cancer cells; test: Cell viability, photomicrographs of treated cells; settings: 25 μM, 24 hours
Method: as §2, §3

[11] = test system: T47D.Puro and T47D.EGFR cells; test: Thymidine incorporation, vector control versus EGFR overexpressing cells; settings: 24 h, increasing concentrations
SKBR3 cells [12] = test: Cell proliferation by thymidine incorporation; settings: 24 hours, same concentration
Method: as §2, §3

MDA-MB-468 cells = test: Cell proliferation by thymidine incorporation; settings: 24 hours, same concentration
Method: as §2, §3

[13] = 25 μM pretreatment 15 hours, 20 ng/ml EGF 15 minutes
[14] = 24 h, increasing concentrations

**Q.** Which results are given for CS(=O)(=O)CCNCc1ccc(-c2ccc3ncnc(Nc4ccc(OCc5cccc(F)c5)c(Cl)c4)c3c2)o1 [Lapatinib]?
**A.** Akt phosphorylation ([1]; 24 h, 20 μM RBF3, 100 nM Rapamycin, 20 μM Lapatinib): without affecting; Erk phosphorylation ([1]; 24 h, 20 μM RBF3, 100 nM Rapamycin, 20 μM Lapatinib (FIG. 8C)): reduced; response of cell viability to single drug (HCC1954 cells): slightly more responsive

**Q.** What does the source list for O=S(O)CCCCSSCC(O)CO (stereo not drawn) [NSC606968]?
**A.** Akt phosphorylation ([2]; 20 μM, 24 h): weak effect; EGFR electrophoretic mobility ([2]; 20 μM, 24 h): partial effect

**Q.** How did the Erk phosphorylation ([1]; 20 μM NSC624205, 24 h (FIG. 2E)) turn out when O=S(O)CCCCSSCCCCSSCCCCS(=O)O [NSC624205] was run?
**A.** inhibiting

**Q.** What about the cell death [3] of the same compound?
**A.** Extensive cell death; also recorded: underwent cell death

**Q.** And the cell killing [4]?
**A.** not killed

**Q.** And the cell killing ([5]; 10 μM, 24 hr)?
**A.** killed

**Q.** And the cell viability ([5]; 25 μM, 24 hours)?
**A.** lethal

**Q.** And the Akt phosphorylation [6]?
**A.** decreased

**Q.** And the EGFR electrophoretic mobility [6]?
**A.** electrophoretic mobility shift

**Q.** What about the cell killing [7] of the same compound?
**A.** little effect

**Q.** What about the cell killing (SKBR3 cells [8]) of the same compound?
**A.** killed

**Q.** And the “EGFR electrophoretic mobility after washout (reversibility)” value ([2]; 20 μM for 24 hours, then 24 hours post-treatment without drug)?
**A.** restored to near control levels

**Q.** What about the “EGFR tyrosine phosphorylation on Tyr845, EGF-induced” value [2, 13] of the same compound?
**A.** decreased

**Q.** And the “overall EGF-induced cellular tyrosine phosphorylation” value [2, 13]?
**A.** decreased

**Q.** What about the EGFR electrophoretic mobility [2, 14] of the same compound?
**A.** concentration-dependent increase

**Q.** What about the “EGFR phosphorylation (phospho-specific antibody)” value [2, 14] of the same compound?
**A.** decrease

**Q.** What about the PARP cleavage [2, 14] of the same compound?
**A.** concentration-dependent increase

**Q.** What about the Akt phosphorylation [9] of the same compound?
**A.** inhibiting

**Q.** And the Erk phosphorylation [9]?
**A.** inhibiting

**Q.** What about the Erk phosphorylation (Erk in T47D cells) of the same compound?
**A.** inhibiting

**Q.** And the cell viability [10]?
**A.** little effect

**Q.** O=S(O)CCCCSSSCCCCS(=O)O [NSC333839] was tested. Which cell viability ([5]; 20 μM, 24 h, panel of sulfinate-containing compounds) did it give?
**A.** activity similar to NSC624205

**Q.** And the “EGFR and Akt phosphorylation” value ([2]; 20 μM, 24 h)?
**A.** activity similar to NSC624205

**Q.** Which “sensitivity of proliferation of EGFR overexpressing T47D cells relative to control cells” value [11] does the source give for O=S(O)CCCCSSCC(O)C(O)CSSCCCCS(=O)O (stereo not drawn) [NSC624203] here?
**A.** more sensitive

**Q.** What about the “decreasing Akt phosphorylation, increasing PARP cleavage, reducing EGFR and overall cellular tyrosine phosphorylation, compared with AG490 or EGFR/HER2 kinase inhibitor” value ([2]; 24 hours) of the same compound?
**A.** more effective

**Q.** And the “inhibition of proliferation compared with commercial EGFR/HER2 tyrosine kinase inhibitor (Calbiochem #324673)” value (SKBR3 cells [12])?
**A.** more effectively suppressed

**Q.** And the “inhibition of proliferation compared with commercial EGFR/HER2 tyrosine kinase inhibitor (Calbiochem #324673)” value (MDA-MB-468 cells)?
**A.** more effectively suppressed
